Measurements from article PMC5516028, “Molecular tools for GABAA receptors: High affinity ligands for β1-containing subtypes” (Scientific Reports, 2017).
Several values for one entry are separate records, joined by “and”; a condition that tells them apart may be missing. Equal values may be shown once. Read-outs that look alike come from different tables or passages of the source.

Tests used:
Type in all cases: cell-based
[1] = target: T1, α1β3γ2 GABAA receptors (Rattus norvegicus, UniProt P62813+P63079); test: Two electrode voltage clamp in Xenopus laevis oocytes, α1β3γ2
T1 construct: expressed in transfected cells; host or cells: Xenopus laevis oocytes, mRNA injected
T1 sequence (P62813 28-455): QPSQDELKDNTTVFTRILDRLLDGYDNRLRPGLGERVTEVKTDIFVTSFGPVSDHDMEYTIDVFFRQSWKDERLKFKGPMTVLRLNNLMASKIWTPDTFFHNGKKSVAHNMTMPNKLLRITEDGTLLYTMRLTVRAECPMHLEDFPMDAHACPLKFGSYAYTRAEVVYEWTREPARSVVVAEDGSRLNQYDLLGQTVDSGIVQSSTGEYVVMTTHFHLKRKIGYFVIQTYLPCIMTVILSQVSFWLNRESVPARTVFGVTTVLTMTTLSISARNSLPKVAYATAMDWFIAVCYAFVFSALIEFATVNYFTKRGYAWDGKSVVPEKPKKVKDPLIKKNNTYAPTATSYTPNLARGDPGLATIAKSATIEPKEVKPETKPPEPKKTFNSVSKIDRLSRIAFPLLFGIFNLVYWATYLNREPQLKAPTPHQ
T1 sequence (P63079 26-473): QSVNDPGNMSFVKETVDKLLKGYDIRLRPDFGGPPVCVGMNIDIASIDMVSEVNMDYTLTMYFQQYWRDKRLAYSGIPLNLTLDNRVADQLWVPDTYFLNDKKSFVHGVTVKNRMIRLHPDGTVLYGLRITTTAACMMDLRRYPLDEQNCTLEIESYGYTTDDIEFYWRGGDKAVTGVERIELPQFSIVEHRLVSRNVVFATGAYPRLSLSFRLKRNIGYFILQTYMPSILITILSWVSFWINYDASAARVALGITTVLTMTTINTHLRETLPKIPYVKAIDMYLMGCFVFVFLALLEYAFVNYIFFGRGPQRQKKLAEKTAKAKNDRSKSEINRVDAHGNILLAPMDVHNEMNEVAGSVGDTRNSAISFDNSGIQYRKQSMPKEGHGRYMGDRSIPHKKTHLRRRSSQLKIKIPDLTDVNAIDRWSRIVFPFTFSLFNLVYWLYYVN
T1 sequence (P18508 39-466 partner): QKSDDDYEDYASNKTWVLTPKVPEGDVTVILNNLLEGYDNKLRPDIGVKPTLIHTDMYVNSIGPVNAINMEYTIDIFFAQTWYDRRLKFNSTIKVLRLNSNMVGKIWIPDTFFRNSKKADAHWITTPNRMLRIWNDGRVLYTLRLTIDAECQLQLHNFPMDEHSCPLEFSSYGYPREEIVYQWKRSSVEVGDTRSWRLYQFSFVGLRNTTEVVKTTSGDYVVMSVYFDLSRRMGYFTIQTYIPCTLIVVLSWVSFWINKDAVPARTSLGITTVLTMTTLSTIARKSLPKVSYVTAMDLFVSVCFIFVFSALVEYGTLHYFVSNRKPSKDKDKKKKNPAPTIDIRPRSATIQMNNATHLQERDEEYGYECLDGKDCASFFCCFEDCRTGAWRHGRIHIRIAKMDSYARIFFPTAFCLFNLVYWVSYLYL
Description: (§1) cDNA’s of rat GABAA receptor subunits α1, α4, β1, β2, β3 and γ2S were cloned as described. cDNAs of the rat subunits α2, α3 and α5 were gifts from P. Malherbe, that of α6 and γ1 were gifts of P. Seeburg and that of δ was a gift of C. Czajkowski. The mutants were constructed using the Q5 Site-Directed Mutagenesis Kit (New England Biolabs) following manufacturer’s instruction. We used the wild-type rat β3-pCI vector as template and the primers […] and […] resulting in a substitution of amino acid N41 (AAC) to R (AGG). We used the wild-type rat β1-pCI vector as template and the primers […] and […] resulting in a substitution of amino acid R41 (CGG) to N (AAC). The mutated subunits were confirmed by sequencing.
(§2) In vitro transcription of mRNA was based on the cDNA expression vectors encoding for rat GABAA receptor subunits α1–6, β1-3, γ1,2, δ and the two β mutants (β1R41N and β3N41R)[40]. After linearizing the cDNA vectors with appropriate restriction endonucleases, the cDNA was purified and concentrated with the DNA Clean and Contentrator ^TM Kit (Zymoresearch, Catalog No. D4005). Capped transcripts of the purified cDNA were produced using the mMESSAGE mMACHINE® T7 transcription kit (Ambion, TX, USA) and polyadenylated using the Ambion PolyA tailing kit (Ambion). After transcription and polyadenylation the RNA was purified with the MEGAclear ^TM Kit (Ambion, Catalog No. AM1908). The final RNA concentration was measured on NanoDrop® ND-1000 and finally diluted and stored in diethylpyrocarbonate-treated water at −80 °C. For the microinjection, the RNA of αβ receptor combinations was mixed at 1:1 ratio (which leads to αβ receptors that consist of predominantly 3 beta and 2 alpha subunits[27]), for αkβlγm (k = 1–3, l = 1, 3, m = 1, 2) receptors at 1:1:5 ratio, for αkβ3γ2 (k = 4–6) and αkβlδ (k = 1, 4 and 6, l = 1, 3) receptor combinations at 3:1:5 ratio.
(§3) Mature female Xenopus laevis (Nasco, WI) were anesthetized in a bath of ice-cold 0.17% Tricain (Ethyl-m-aminobenzoate, Sigma, MO) before decapitation in full accordance with all rules of the Austrian animal protection law (see http://www.ris.bka.gv.at/Dokumente/BgblAuth/BGBLA_2012_I_114/BGBLA_2012_I_114.pdf) and the Austrian animal experiment by-laws (see https://www.ris.bka.gv.at/Dokumente/BgblAuth/BGBLA_2012_II_522/BGBLA_2012_II_522.pdf) which implement the European Directive 2010/63/EU (see http://eur-lex.europa.eu/LexUriServ/LexUriServ.do?uri=OJ:L:2010:276:0033:0079:en:PDF) into the Austrian law (all information accessed on July 27, 2016). The frog’s ovaries were transferred to ND96 medium (96 mM NaCl, 2 mM KCl, 1 mM MgCl2, 5 mM HEPES; pH 7.5). Stage 5–6 oocytes with the follicle cell layer around them were roughly dissected with forceps into packages of 10–15 cells and washed in Ca^2+-free ND96 medium. Cells were then digested with collagenase (type IA, Sigma, NO, 1 mg/mL ND96) at 18 °C shaking at 30 rpm for 30–60 minutes and gently defolliculated with the aid of a glass pipette with appropriate tip diameter and a platinum loop. Defolliculated cells were stored at 18 °C for at least 6 hours in ND96 solution containing penicillin G (10000 IU/100 mL) and streptomycin (10 mg/100 mL) in order to preselect and exclude damaged cells from further treatment. Healthy defolliculated oocytes were injected with an aqueous solution of mRNA. A total of 4.5 ng of mRNA per oocyte was injected with a Nanoject II (Drummond). After injection of mRNA, oocytes were incubated at 18 °C (ND96 + antibiotic) for 2–3 days for αβ receptors and for 3–4 days for αβγ or αβδ receptors before recording. When cells were measured at later time points, oocytes were stored at +4 °C instead of 18 °C.
(§4) For electrophysiological recordings, oocytes were placed on a nylon-grid in a bath of Ca^2+-containing NDE solution medium [96 mM NaCl, 5 mM HEPES-NaOH (pH 7.5), 2 mM KCl, 1 mM MgCl2, 1.8 mM CaCl2].

[2] = target: T2, α2β3γ2 GABAA receptors (Rattus norvegicus, UniProt P23576+P63079); test: Two electrode voltage clamp in Xenopus laevis oocytes, α2β3γ2
T2 construct: expressed in transfected cells; host or cells: Xenopus laevis oocytes, mRNA injected
T2 sequence (P23576 29-451): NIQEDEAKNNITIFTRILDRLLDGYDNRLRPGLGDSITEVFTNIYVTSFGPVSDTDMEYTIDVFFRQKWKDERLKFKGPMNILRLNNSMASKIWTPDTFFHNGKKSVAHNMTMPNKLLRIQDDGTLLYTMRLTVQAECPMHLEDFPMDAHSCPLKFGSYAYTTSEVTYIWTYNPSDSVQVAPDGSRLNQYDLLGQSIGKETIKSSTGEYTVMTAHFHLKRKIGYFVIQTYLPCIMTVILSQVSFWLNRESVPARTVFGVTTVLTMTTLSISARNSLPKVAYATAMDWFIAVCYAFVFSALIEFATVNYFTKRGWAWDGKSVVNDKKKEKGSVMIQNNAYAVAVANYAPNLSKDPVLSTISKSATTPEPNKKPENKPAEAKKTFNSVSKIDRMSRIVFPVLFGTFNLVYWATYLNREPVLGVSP
T2 sequence (P63079 26-473): as the sequence (P63079 26-473) above
T2 sequence (P18508 39-466 partner): as the sequence (P18508 39-466 partner) above
Description: as §1, §2, §3, §4

[3] = target: T3, α3β3γ2 GABAA receptors (Rattus norvegicus, UniProt P20236+P63079); test: Two electrode voltage clamp in Xenopus laevis oocytes, α3β3γ2
T3 construct: expressed in transfected cells; host or cells: Xenopus laevis oocytes, mRNA injected
T3 sequence (P20236 29-493): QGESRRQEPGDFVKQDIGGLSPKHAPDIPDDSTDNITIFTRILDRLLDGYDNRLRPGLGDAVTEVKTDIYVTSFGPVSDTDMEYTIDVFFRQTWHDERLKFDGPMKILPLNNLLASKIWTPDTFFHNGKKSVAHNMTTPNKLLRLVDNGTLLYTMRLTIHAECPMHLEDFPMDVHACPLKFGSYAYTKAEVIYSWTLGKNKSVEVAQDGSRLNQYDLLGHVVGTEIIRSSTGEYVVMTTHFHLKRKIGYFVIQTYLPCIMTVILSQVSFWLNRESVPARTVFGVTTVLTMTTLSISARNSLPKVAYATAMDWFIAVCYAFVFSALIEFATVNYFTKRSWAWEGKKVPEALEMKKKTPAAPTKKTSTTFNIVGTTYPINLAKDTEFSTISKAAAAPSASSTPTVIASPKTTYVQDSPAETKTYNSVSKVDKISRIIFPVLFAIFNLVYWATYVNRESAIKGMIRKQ
T3 sequence (P63079 26-473): as the sequence (P63079 26-473) above
T3 sequence (P18508 39-466 partner): as the sequence (P18508 39-466 partner) above
Description: as §1, §2, §3, §4

[4] = target: T4, α6β3γ2 GABAA receptors (Rattus norvegicus, UniProt P30191+P63079); test: Two electrode voltage clamp in Xenopus laevis oocytes, α6β3γ2
T4 construct: expressed in transfected cells; host or cells: Xenopus laevis oocytes, mRNA injected
T4 sequence (P30191 20-453): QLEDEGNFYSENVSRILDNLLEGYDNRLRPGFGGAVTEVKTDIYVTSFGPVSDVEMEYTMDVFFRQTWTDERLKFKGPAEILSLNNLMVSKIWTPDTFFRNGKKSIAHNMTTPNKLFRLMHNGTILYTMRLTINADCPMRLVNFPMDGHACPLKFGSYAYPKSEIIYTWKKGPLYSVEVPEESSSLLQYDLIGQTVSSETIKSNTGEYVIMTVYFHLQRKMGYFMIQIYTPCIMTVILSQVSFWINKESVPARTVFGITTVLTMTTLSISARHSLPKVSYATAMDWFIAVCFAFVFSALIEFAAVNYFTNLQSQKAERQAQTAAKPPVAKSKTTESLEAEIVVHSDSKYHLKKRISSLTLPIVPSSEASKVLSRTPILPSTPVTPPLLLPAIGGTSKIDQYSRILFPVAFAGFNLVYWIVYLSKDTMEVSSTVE
T4 sequence (P63079 26-473): as the sequence (P63079 26-473) above
T4 sequence (P18508 39-466 partner): as the sequence (P18508 39-466 partner) above
Description: as §1, §2, §3, §4

[5] = target: T5, α2β3 GABAA receptors (Rattus norvegicus, UniProt P23576+P63079); test: Two electrode voltage clamp in Xenopus laevis oocytes, α2β3
T5 construct: expressed in transfected cells; host or cells: Xenopus laevis oocytes, mRNA injected
T5 sequence (P23576 29-451): as the sequence (P23576 29-451) above
T5 sequence (P63079 26-473): as the sequence (P63079 26-473) above
Description: as §1, §2, §3, §4

[6] = target: T6, α5β3 GABAA receptors (Rattus norvegicus, UniProt P19969+P63079); test: Two electrode voltage clamp in Xenopus laevis oocytes, α5β3; details: read-out: efficacy, % of control current (GABA EC3-5 = 100%), α5β3
T6 construct: expressed in transfected cells; host or cells: Xenopus laevis oocytes, mRNA injected
T6 sequence (P19969 32-464 limits assumed): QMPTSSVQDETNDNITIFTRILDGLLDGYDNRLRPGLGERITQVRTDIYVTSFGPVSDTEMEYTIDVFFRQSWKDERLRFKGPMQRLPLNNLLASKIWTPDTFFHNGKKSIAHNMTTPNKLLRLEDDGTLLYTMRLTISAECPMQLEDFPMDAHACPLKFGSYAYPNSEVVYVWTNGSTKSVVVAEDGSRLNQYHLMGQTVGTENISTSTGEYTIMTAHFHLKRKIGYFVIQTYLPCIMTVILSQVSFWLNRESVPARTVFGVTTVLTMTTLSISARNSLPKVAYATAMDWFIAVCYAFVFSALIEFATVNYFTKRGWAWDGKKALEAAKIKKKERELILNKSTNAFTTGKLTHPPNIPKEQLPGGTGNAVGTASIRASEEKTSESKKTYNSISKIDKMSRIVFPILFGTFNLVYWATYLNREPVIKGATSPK
T6 sequence (P63079 26-473): as the sequence (P63079 26-473) above
Description: as §1, §2, §3, §4

[7] = read-out: efficacy, % of control current (GABA EC3-5 = 100%), 1 nM
[8] = read-out: efficacy, % of control current (GABA EC3-5 = 100%), 10 nM
[9] = read-out: efficacy, % of control current (GABA EC3-5 = 100%), 300 nM
[10] = read-out: efficacy, % of control current (GABA EC3-5 = 100%), 1 µM
[11] = read-out: efficacy, % of control current (GABA EC3-5 = 100%), 10 µM
[12] = read-out: efficacy, % of control current (GABA EC3-5 = 100%), 30 µM
[13] = read-out: efficacy, % of control current (GABA EC3-5 = 100%), 100 nM

Compound `Nc1ccc(-n2nc3c4cc(Cl)ccc4[nH]cc-3c2=O)cc1` [Compound 3, 8-Chloro-2-(4-aminophenyl)-2H-pyrazolo[4,3-c]quinolin-3(5H)-one] has an EC50 ([1]; co-applied with GABA EC3-5, read-out: EC50) of roughly 1000 nM, an activity at 0.001 µM [1, 7] of 100.8 ± 0.6% and an activity at 0.01 µM [1, 8] of 103 ± 1.4%. For the same compound, the activity at 0.3 µM [1, 9] was 120 ± 4.3%, the activity at 1 µM [1, 10] was 145 ± 3.7% and the activity at 3 µM ([1]; read-out: efficacy, % of control current (GABA EC3-5 = 100%), 3 µM) was 197 ± 13.7%. For the same compound, the activity at 10 µM [1, 11] was 232 ± 7.5%, the activity at 30 µM [1, 12] was 137 ± 17.8% and the Emax ([1]; read-out: maximum efficacy / modulatory effects up to) was roughly 200%. For the same compound, the EC50 ([1]; read-out: pEC50 (converted)) was 1260 nM, the EC50 [2] was greater than 10000 nM and the activity at 0.01 µM ([2]; read-out: efficacy, % of control current (GABA EC3-5 = 100%), α2β3γ2, 10 nM) was 103 ± 3.2%. It also gave an activity at 0.1 µM ([2]; read-out: efficacy, % of control current (GABA EC3-5 = 100%), α2β3γ2, 100 nM) of 103 ± 3.2%, an activity at 1 µM ([2]; read-out: efficacy, % of control current (GABA EC3-5 = 100%), α2β3γ2, 1 µM) of 106 ± 2.2% and an activity at 10 µM ([2]; read-out: efficacy, % of control current (GABA EC3-5 = 100%), α2β3γ2, 10 µM) of 124 ± 4.1%. The “modulatory effects up to” value [3] was ~ 200%, the EC50 ([3]; co-applied with GABA EC3-5) was ~1000 nM and 1200 nM and the activity at 0.001 µM [3, 7] was 100%. It also gave an activity at 0.01 µM [3, 8] of 101 ± 1%, an activity at 0.1 µM [3, 13] of 108 ± 3.7% and an activity at 0.3 µM [3, 9] of 104 ± 4%. For the same compound, the activity at 1 µM [3, 10] was 133 ± 4%, the activity at 10 µM [3, 11] was 202 ± 23% and the activity at 30 µM [3, 12] was 195%. For the same compound, the EC50 ([4]; co-applied with GABA EC3-5) was ~2000 nM and 2300 nM, the activity at 0.001 µM [4, 7] was 108 ± 5.9% and the activity at 0.01 µM [4, 8] was 120 ± 7.1%. For the same compound, the activity at 0.1 µM [4, 13] was 148 ± 8%, the activity at 1 µM [4, 10] was 250 ± 18.9% and the activity at 10 µM [4, 11] was 394 ± 35%. It also gave an EC50 ([5]; read-out: EC50) of 5100 nM, an activity at 0.001 µM ([5]; read-out: efficacy, % of control current (GABA EC3-5 = 100%), α2β3, 1 nM) of 100 ± 0.1% and an activity at 0.1 µM ([5]; read-out: efficacy, % of control current (GABA EC3-5 = 100%), α2β3, 100 nM) of 102 ± 1.2%. The activity at 10 µM ([5]; read-out: efficacy, % of control current (GABA EC3-5 = 100%), α2β3, 10 µM) was 156 ± 9.7%, the activity at 0.1 µM ([6]; 100 nM) was 115 ± 8% and the activity at 1 µM ([6]; 1 µM) was 108 ± 4.7%. It also gave an activity at 10 µM ([6]; 10 µM) of 75.4 ± 6.4%.
